Experimental data from patent publication US10759783B2, “Biaryl inhibitors of Bruton'S tyrosine kinase” (BIOGEN MA INC., priority 2013, dated 2020).

Experiments:
BTK enzyme = biological target: T1, BTK enzyme (Homo sapiens, UniProt Q06187); assay: In vitro BTK kinase assay: BTK-POLYGAT-LS assay; format: biochemical; details: ATP 10 μM, read-out: IC50 (10uMATP)
T1 construct: purchased Upstate 14-552
Summary of the method: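 Human BTK activity was measured with final 10 μM ATP and 100 nM polyGAT substrate in pH 7.5 Tris buffer with 10 mM MgCl2, DTT, Triton X-100 and casein.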

[1] = biological target: BTK (phospho-BTK) in human whole blood (Homo sapiens, UniProt Q06187); assay: In vitro PD assay in human whole blood (pBTK assay)
Sequence of BTK (phospho-BTK) in human whole blood (Q06187 whole entry): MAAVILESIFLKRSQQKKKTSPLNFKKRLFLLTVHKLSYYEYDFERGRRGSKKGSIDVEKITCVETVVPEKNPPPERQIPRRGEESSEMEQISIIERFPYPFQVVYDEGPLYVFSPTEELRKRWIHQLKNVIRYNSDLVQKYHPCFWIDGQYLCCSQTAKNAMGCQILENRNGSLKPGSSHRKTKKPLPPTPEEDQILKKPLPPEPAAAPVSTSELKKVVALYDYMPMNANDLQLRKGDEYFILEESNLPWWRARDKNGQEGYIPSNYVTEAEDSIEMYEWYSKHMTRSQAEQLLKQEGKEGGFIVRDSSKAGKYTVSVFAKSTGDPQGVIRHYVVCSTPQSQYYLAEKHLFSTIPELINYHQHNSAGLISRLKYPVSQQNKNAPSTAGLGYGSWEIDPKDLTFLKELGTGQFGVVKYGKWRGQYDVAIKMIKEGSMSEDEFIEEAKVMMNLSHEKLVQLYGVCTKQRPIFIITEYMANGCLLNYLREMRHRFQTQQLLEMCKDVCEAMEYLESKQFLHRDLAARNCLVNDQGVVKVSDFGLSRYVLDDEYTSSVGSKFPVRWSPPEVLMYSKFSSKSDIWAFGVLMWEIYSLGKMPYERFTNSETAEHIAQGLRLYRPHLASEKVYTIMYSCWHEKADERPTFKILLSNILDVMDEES

T1 sequence (Q06187 whole entry): as above

IC50 (BTK enzyme) [nM] | IC50 [1] [nM] | SMILES
< 10 | 1500 to 10000 | Cn1cc(Nc2nccc(-c3ccc4c(c3)NCCC4NC(=O)c3cnc(C(C)(C)C)s3)n2)cn1 (stereo not shown) [Example I-99, 2-(tert-butyl)-N-(7-(2-((1-methyl-1H-pyrazol-4-yl)amino)pyrimidin-4-yl)-1,2,3,4-tetrahydroquinolin-4-yl)thiazole-5-carboxamide]
< 10 | < 500 | Cc1cc(-c2ccnc(Nc3cn[nH]c3)n2)ccc1CNC(=O)c1cnc(C(C)(C)C)s1 [Example I-36, N-(4-(2-((1H-pyrazol-4-yl)amino)pyrimidin-4-yl)-2-methylbenzyl)-2-(tert-butyl)thiazole-5-carboxamide]
< 10 | < 500 | Cc1cc(-c2cc(Nc3cc4n(n3)CC(=O)N(C)C4)ncn2)ccc1CNC(=O)c1cnc(C(C)(C)C)s1 [Example I-286, 2-tert-butyl-N-[[2-methyl-4-[6-[(5-methyl-6-oxo-4,7-dihydropyrazolo[1,5-a]pyrazin-2-yl)amino]pyrimidin-4-yl]phenyl]methyl]thiazole-5-carboxamide]
< 10 | < 500 | CCn1cc(Nc2nccc(-c3ccc4c(c3)CCCCC4NC(=O)N3CCC(C(C)(C)C)C3)n2)cn1 (stereo not shown) [Example I-328]
< 10 | < 500 | Cn1cc(Nc2nccc(-c3ccc(CNC(=O)c4cnn(C(C)(C)C)c4)c(CCO)c3)n2)cn1 [Example I-191, 1-(tert-butyl)-N-(2-(2-hydroxyethyl)-4-(2-((1-methyl-1H-pyrazol-4-yl)amino)pyrimidin-4-yl)benzyl)-1H-pyrazole-4-carboxamide]
< 10 | < 500 | CN1CC(n2cc(Nc3nccc(-c4ccc(CNC(=O)c5cnn(C(C)(C)C)c5)c(C(F)(F)F)c4)n3)cn2)C1 [Example I-201, 1-(tert-butyl)-N-(4-(2-((1-(1-methylazetidin-3-yl)-1H-pyrazol-4-yl)amino)pyrimidin-4-yl)-2-(trifluoromethyl)benzyl)-1H-pyrazole-4-carboxamide]
< 10 | 500 to 1500 | Cc1cc(-c2ccnc(Nc3cnn(C)c3)n2)ccc1CNC(=O)N1CCC(C(C)(C)C)CC1 [Example I-20, 4-(tert-butyl)-N-(2-methyl-4-(2-((1-methyl-1H-pyrazol-4-yl)amino)pyrimidin-4-yl)benzyl)piperidine-1-carboxamide]
< 10 | < 500 | CC(C)(C)C1CCN(C(=O)NCc2ccc(-c3ccnc(Nc4cnn(C5CC5)c4)n3)cc2C(F)(F)F)C1 (stereo not shown) [Example I-296, 3-tert-butyl-N-[[4-[2-[(1-cyclopropylpyrazol-4-yl)amino]pyrimidin-4-yl]-2-(trifluoromethyl)phenyl]methyl]pyrrolidine-1-carboxamide]
< 10 | < 500 | Cc1cc(-c2cc(Nc3cc4n(n3)CCOC4)ncn2)ccc1CNC(=O)N1CC(OC(C)C)C1 [Example I-277, N-[[4-[6-(6,7-dihydro-4H-pyrazolo[5,1-c][1,4]oxazin-2-ylamino)pyrimidin-4-yl]-2-methyl-phenyl]methyl]-3-isopropoxy-azetidine-1-carboxamide]

SMILES | IC50 (BTK enzyme) [nM] | IC50 [1] [nM]
Cn1cc(Nc2nccc(-c3ccc4c(c3)CCCCC4NC(=O)N3CC(OC(C)(C)C)C3)n2)cn1 (stereo not shown) [Example I-163, 3-(tert-butoxy)-N-(2-(2-((1-methyl-H-pyrazol-4-yl)amino)pyrimidin-4-yl)-6,7,8,9-tetrahydro-5H-benzo[7]annulen-5-yl)azetidine-1-carboxamide] | < 10 | < 500
Cc1cc(-c2ccnc(Nc3cnn(CCO)c3)n2)ccc1CNC(=O)N1CC(OC(C)(C)C)C1 [Example I-214, 3-(tert-butoxy)-N-(4-(2-((1-(2-hydroxyethyl)-1H-pyrazol-4-yl)amino)pyrimidin-4-yl)-2-methylbenzyl)azetidine-1-carboxamide] | < 10 | < 500
